Assay results: PMC4428687 (FEMS yeast research, 2013)

Experiments:
CaPma1p [1] = molecular target: CaPma1p (Candida albicans, UniProt A0A1D8PJ01, A570P/A595V/D557N/D559E/I574L/N594R/S564G/S601N/V186I/V531I); assay: biochemical
CaPma1p [2] = molecular target: CaPma1p (Candida albicans, UniProt A0A1D8PJ01, A570P/A595V/I574L/N594R/S601N); assay: biochemical
CaPma1p [3] = molecular target: CaPma1p (Candida albicans, UniProt A0A1D8PJ01); assay: ATPase activity; assay type: biochemical
[4] = molecular target: CaPma1p-ScPma2p chimera expressed in Saccharomyces cerevisiae (C. albicans SC5314 (with residues of S. cerevisiae Pma2p)) (UniProt P28877); assay: SEC

**Q.** How did the IC50 (CaPma1p [1]) turn out when `[O]=[V]([OH])([OH])[OH]` [vanadate] was run?
**A.** 2 to 9 µM

**Q.** What about the IC50 (CaPma1p [2]) of the same molecule?
**A.** 2 to 9 µM

**Q.** And the IC50 (CaPma1p [3])?
**A.** 2 to 9 µM

**Q.** How did the stoichiometry N [4] turn out when “CaPma1p-ScPma2p chimera expressed in Saccharomyces cerevisiae (from UniProt P28877 1-895) (enzyme)” was run?
**A.** > 4
